# Where two headings read alike, the source gives them in different places.
# Assay: Biodistribution studies in mice (radioiodinated compounds, % ID/g-tissue)
# Type: in vivo
# Settings: tracer level, but MDTA-Na 0.18M and MDTA-NMG 0.19M; for tissue uptake at 1 min / tissue uptake at 5 min / tissue uptake at 1 h: mouse, iv
# Procedure: All of the new analogs were radiolabeled in order to determine their physical and biological properties. The iodinated compounds were exchange-labeled by heating with Na^125 I in the presence of CuSO4 and Na2 S2 O5 in glacial acetic acid at 135-150° C. for 1 h, followed by HPLC purification using a nucleosil C18 column and CH3 CN--H2 O containing 0.1% TFA as an eluent. In some cases (e.g. the compound of Example 12) the radioiodination was carried out by heating with Na*I in HOAc--NaOAc (pH 4.6) at 100° C. for 15 min. In all cases radiolabeled compounds of acceptable radiochemical purity and specific activity were obtained.
# The compound of formula I, N,N-dimethyl-diatrizoic acid, was similarly radiolabeled for biological studies.
# a) For intravenous administration the preferred vehicle for the compounds of formula I, II and III is bovine serum albumin, however, other physiologically acceptable vehicles may also be used.
# Biodistribution studies were conducted in mice and the results are given in Table I. X-Ray CT images of MDTA in mice and rats indicate that these hydrophobic diatrizoate analogs may be of promise for liver imaging.
# [1] = blood, blood, 1', read-out: Biodistribution, Blood 1'
# [2] = blood, blood, 5', read-out: Biodistribution, Blood 5'
# [3] = blood, blood, 60', read-out: Biodistribution, Blood 60'
# [4] = kidney, kidney, 1', read-out: Biodistribution, Kidney 1'
# [5] = kidney, kidney, 5', read-out: Biodistribution, Kidney 5'
# [6] = kidney, kidney, 60', read-out: Biodistribution, Kidney 60'
# [7] = liver, liver, 1', read-out: Biodistribution, Liver 1'
# [8] = liver, liver, 5', read-out: Biodistribution, Liver 5'
# [9] = liver, liver, 60', read-out: Biodistribution, Liver 60'
# [10] = small/large intestine, small/large intestine, 1', read-out: Biodistribution, Sm/Lrg. Intestine 1'
# [11] = small/large intestine, small/large intestine, 5', read-out: Biodistribution, Sm/Lrg. Intestine 5'
# [12] = small/large intestine, small/large intestine, 60', read-out: Biodistribution, Sm/Lrg. Intestine 60'
tissue uptake at 1 min [1],tissue uptake at 5 min [2],tissue uptake at 1 h [3],tissue uptake at 1 min [4],tissue uptake at 5 min [5],tissue uptake at 1 h [6],tissue uptake at 1 min [7],tissue uptake at 5 min [8],tissue uptake at 1 h [9],tissue uptake at 1 min [10],tissue uptake at 5 min [11],tissue uptake at 1 h [12],Molecule,other results
,,,,,,,,,,,,"9(10)-N-(4-(((3,5-Bis-(acetylmethylamino)-2,4,6-triiodophenyl)carbonyl)amino)benzoyl)amino-octadecanoic acid [9/10-F-18P-MDTA]","Biodistribution, Blood 1' (blood, 1', 1 min): 6.16 % ID/g-tissue; Biodistribution, Blood 5' (blood, 5', 5 min): 0.46 % ID/g-tissue; Biodistribution, Blood 60' (blood, 60', 60 min): 0.26 % ID/g-tissue; Biodistribution, Kidney 1' (kidney, 1', 1 min): 3.32 % ID/g-tissue; Biodistribution, Kidney 5' (kidney, 5', 5 min): 2.09 % ID/g-tissue; Biodistribution, Kidney 60' (kidney, 60', 60 min): 0.39 % ID/g-tissue; Biodistribution, Liver 1' (liver, 1', 1 min): 30.29 % ID/g-tissue; Biodistribution, Liver 5' (liver, 5', 5 min): 32.33 % ID/g-tissue; Biodistribution, Liver 60' (liver, 60', 60 min): 3.16 % ID/g-tissue; Biodistribution, Sm/Lrg. Intestine 1' (small/large intestine, 1', 1 min): 0.51 % ID/g-tissue; Biodistribution, Sm/Lrg. Intestine 5' (small/large intestine, 5', 5 min): 2.71 % ID/g-tissue; Biodistribution, Sm/Lrg. Intestine 60' (small/large intestine, 60', 60 min): 20.21 % ID/g-tissue"
4.57 %ID/g,0.81 %ID/g,0.03 %ID/g,17.1 %ID/g,5.69 %ID/g,0.16 %ID/g,12.8 %ID/g,10.6 %ID/g,1.03 %ID/g,1.28 %ID/g,8.81 %ID/g,16.5 %ID/g,"CC(=O)N(C)c1c(I)c(C(=O)NCC(=O)O)c(I)c(N(C)C(C)=O)c1I [Example F2-DP-MDTA, 4-[[[3,5-Bis(acetylmethylamino)-2,4,6-triiodophenyl]carbonyl]amino]-acetic acid]",
4.83 %ID/g,0.96 %ID/g,0.04 %ID/g,11.5 %ID/g,5.83 %ID/g,0.33 %ID/g,17.9 %ID/g,12.9 %ID/g,2.25 %ID/g,2.47 %ID/g,9.54 %ID/g,25.4 %ID/g,"CC(=O)N(C)c1c(I)c(C(=O)Nc2ccc(CC(=O)O)cc2)c(I)c(N(C)C(C)=O)c1I [Example F2-P-MDTA, 4-(((3,5-Bis(Acetylmethylamino)-2,4,6-triiodophenyl)carbonyl)amino)-benzeneacetic acid]",
4.91 %ID/g,0.82 %ID/g,0.12 %ID/g,17.9 %ID/g,7.89 %ID/g,0.05 %ID/g,16.1 %ID/g,11.9 %ID/g,0.33 %ID/g,1.73 %ID/g,11.3 %ID/g,21.2 %ID/g,"CC(=O)N(C)c1c(I)c(C(=O)NCCCC(=O)O)c(I)c(N(C)C(C)=O)c1I [Example F4-DP-MDTA, 4-[[[3,5-Bis(acetylmethylamino)-2,4,6-triiodophenyl]carbonyl]amino]-butanoic acid]",
3.55 %ID/g,0.57 %ID/g,0.07 %ID/g,5.63 %ID/g,5.41 %ID/g,0.63 %ID/g,29.6 %ID/g,29.4 %ID/g,6.13 %ID/g,1.71 %ID/g,4.56 %ID/g,20.4 %ID/g,"CC(=O)N(C)c1c(I)c(C(=O)Nc2ccc(CCCC(=O)O)cc2)c(I)c(N(C)C(C)=O)c1I [Example F4-P-MDTA, 4-(((3,5-Bis(acetylmethylamino)-2,4,6-triiodophenyl)carbonyl)amino)benzenebutyric acid]",
2.44 %ID/g,0.57 %ID/g,0.05 %ID/g,9.5 %ID/g,8.33 %ID/g,0.16 %ID/g,17.1 %ID/g,9.81 %ID/g,0.77 %ID/g,4.92 %ID/g,14.5 %ID/g,22.2 %ID/g,CC(=O)N(C)c1c(I)c(C(=O)NCCCCCCC(=O)O)c(I)c(N(C)C(C)=O)c1I [Example F7-DP-MDTA],
2.38 %ID/g,0.57 %ID/g,0.15 %ID/g,4.28 %ID/g,2.94 %ID/g,0.3 %ID/g,39.5 %ID/g,37.2 %ID/g,5.02 %ID/g,1.38 %ID/g,6.2 %ID/g,26.8 %ID/g,"CC(=O)N(C)c1c(I)c(C(=O)Nc2ccc(CCCCCCC(=O)O)cc2)c(I)c(N(C)C(C)=O)c1I [Example F7-P-MDTA, 4-[[[3,5-Bis(acetylmethylamino)-2,4,6-triiodophenyl]carbonyl]amino]benzeneheptanoic acid]",
9.14 %ID/g,0.74 %ID/g,0.08 %ID/g,6.21 %ID/g,3.63 %ID/g,0.1 %ID/g,57.9 %ID/g,60.1 %ID/g,2.96 %ID/g,1.14 %ID/g,3.06 %ID/g,38.2 %ID/g,"CC(=O)N(C)c1c(I)c(C(=O)Nc2ccc(CCCCCCCCCCC(=O)O)cc2)c(I)c(N(C)C(C)=O)c1I [Example F11-P-MDTA, 4-[[[3,5-Bis(acetylmethylamino)-2,4,6-triiodophenyl]carbonyl]amino]benzeneundecanoic acid]",
2.38 %ID/g,0.39 %ID/g,0.04 %ID/g,9.89 %ID/g,5.72 %ID/g,0.07 %ID/g,28.9 %ID/g,16.6 %ID/g,2.17 %ID/g,2.28 %ID/g,11.6 %ID/g,28 %ID/g,CC(=O)N(C)c1c(I)c(C(=O)NCCCCCCCCCCCC(=O)O)c(I)c(N(C)C(C)=O)c1I [Example F12-DP-MDTA],
24.6 %ID/g,4.28 %ID/g,0.12 %ID/g,8.28 %ID/g,5.1 %ID/g,0.34 %ID/g,46.4 %ID/g,76.3 %ID/g,6.18 %ID/g,2.13 %ID/g,4.85 %ID/g,43.7 %ID/g,"CC(=O)N(C)c1c(I)c(C(=O)Nc2ccc(CCCCCCCCCCCCCCC(=O)O)cc2)c(I)c(N(C)C(C)=O)c1I [Example F15-P-MDTA, 4-[[[3,5-Bis(acetylmethylamino)-2,4,6-triiodophenyl]carbonyl]amino]benzenepentadecanoic acid]",
36.7 %ID/g,13.2 %ID/g,0.68 %ID/g,5.56 %ID/g,5.45 %ID/g,2.67 %ID/g,17.2 %ID/g,24.7 %ID/g,10.4 %ID/g,1.05 %ID/g,2.4 %ID/g,14.4 %ID/g,CC(=O)N(C)c1c(I)c(C(=O)Nc2ccc(CCCCCCCCCCCCCCCCCCC(=O)O)cc2)c(I)c(N(C)C(C)=O)c1I [Example F19-P-MDTA],

# — patent US6264916A, “N,N-dimethyldiatrizoic acid and its conjugates as hepatobiliary agents for x-ray CT imaging” (Bracco Research, USA, priority 2000, dated 2001)
